Laboratory results: article PMC7670682 (BMC Pharmacology & Toxicology, 2020)
“Also recorded” adds a separate entry of the source. Like-named read-outs stand apart in the source and are kept apart here. Marks after values point to notes of the source that are not given here. One block for each compound: values may come before it.

Experiments:
OATP-B = tested on: OATP-B; set-up: method as in PMID 16415120; conditions: cited from earlier work
[1] = cited from earlier work
[2] = combined use with St. John’s wort, a CYP3A4 inducer; cited from earlier work
in vivo = conditions: male, Sprague Dawley, rat, po, 30 mg/kg
CYP3A = conditions: in vitro, different CYP3A substrates; read-out: IC50 of CYP3A inhibition; cited from earlier work
[3] = after oral administration of imatinib; cited from earlier work
[4] = intragastric administration of green tea, rats
[5] = male, Sprague Dawley, rat, in vivo, po, 30 mg/kg
[6] = metabolite, rats, imatinib 30 mg/kg IG + KTZ 75 mg/kg/day 3 days
[7] = metabolite, rats, imatinib 30 mg/kg IG + h-GS 100 mg/kg/day 21 days
[8] = metabolite, rats, imatinib 30 mg/kg IG + h-GS 100 mg/kg/day 21 days, vs imatinib only
[9] = metabolite, rats, imatinib 30 mg/kg IG + h-GS 100 mg/kg/day 21 days, vs l-GS group
[10] = metabolite, rats, imatinib 30 mg/kg IG + h-GS 100 mg/kg/day 21 days, when GS dose was doubled
[11] = metabolite, rats, imatinib 30 mg/kg IG + h-GS and h-GT 100 mg/kg/day each 21 days
[12] = metabolite, rats, imatinib 30 mg/kg IG + h-GS and h-GT 100 mg/kg/day each 21 days, vs imatinib only
[13] = metabolite, rats, imatinib 30 mg/kg IG + h-GS and h-GT 100 mg/kg/day each 21 days, vs l-GS and l-GT group
[14] = metabolite, rats, imatinib 30 mg/kg IG + h-GT 100 mg/kg/day 21 days
[15] = metabolite, rats, imatinib 30 mg/kg IG + l-GS 50 mg/kg/day 21 days
[16] = metabolite, rats, imatinib 30 mg/kg IG + l-GT 50 mg/kg/day 21 days
[17] = metabolite, rats, imatinib 30 mg/kg IG only (control)
[18] = rats, imatinib 30 mg/kg IG + KTZ 75 mg/kg/day 3 days
[19] = rats, imatinib 30 mg/kg IG + h-GS 100 mg/kg/day 21 days
[20] = rats, imatinib 30 mg/kg IG + h-GS and h-GT 100 mg/kg/day each 21 days
[21] = rats, imatinib 30 mg/kg IG + h-GT 100 mg/kg/day 21 days
[22] = rats, imatinib 30 mg/kg IG + l-GS 50 mg/kg/day 21 days
[23] = rats, imatinib 30 mg/kg IG + l-GS and l-GT 50 mg/kg/day each 21 days
[24] = rats, imatinib 30 mg/kg IG + l-GT 50 mg/kg/day 21 days
[25] = rats, imatinib 30 mg/kg IG only (control)

Compound: Oc1cc(O)c2c(c1)O[C@H](c1ccc(O)c(O)c1)[C@@H](O)C2 [(+)-catechin]
inhibition of estrone-3-sulfate uptake (OATP-B; concentration of 100 mM): 31.7%

Compound: Oc1cc(O)c2c(c1)O[C@H](c1ccc(O)c(O)c1)[C@H](O)C2 [EC, (−)-epicatechin]
inhibition of estrone-3-sulfate uptake (OATP-B; concentration of 10 mM): 27.2%
bioavailability [1, 4]: 31.2%

Compound: Oc1cc(O)c2c(c1)O[C@H](c1cc(O)c(O)c(O)c1)[C@H](O)C2 [EGC, (−)-epigallocatechin]
inhibition of estrone-3-sulfate uptake (OATP-B; concentration of 100 mM): 29.1%
bioavailability ([1]; rat, in vivo, po): 13.7%

Compound: O=C(O[C@@H]1Cc2c(O)cc(O)cc2O[C@@H]1c1cc(O)c(O)c(O)c1)c1cc(O)c(O)c(O)c1 [EGCG, (−)-epigallocatechin-3-gallate]
inhibition of estrone-3-sulfate uptake (OATP-B; concentration of 10 mM): 29.5%
bioavailability [1, 4]: 0.1%

AUC0∞ [5]: 105,160.8 ± 75,643.2 ng^.h/mL
tmax [5]: 4.8 ± 2.3 h
decrease in t0.5 (rats, imatinib 30 mg/kg IG + h-GS 100 mg/kg/day 21 days, vs imatinib only): ↓ 16.1%*
decrease in t0.5 (rats, imatinib 30 mg/kg IG + h-GS 100 mg/kg/day 21 days, vs imatinib only, listed as imatinib): 16.1%
decrease in t0.5 (rats, imatinib 30 mg/kg IG + h-GS and h-GT 100 mg/kg/day each 21 days, vs imatinib only): 21.9%
decrease in t0.5 (rats, imatinib 30 mg/kg IG + h-GS and h-GT 100 mg/kg/day each 21 days, vs l-GS and l-GT group): 23.1%
decrease in t0.5 (rats, imatinib 30 mg/kg IG + h-GT 100 mg/kg/day 21 days, vs imatinib only): ↓ 15.8%*
decrease in t0.5 (rats, imatinib 30 mg/kg IG + h-GT 100 mg/kg/day 21 days, vs imatinib only, listed as imatinib): 15.8%
increase in t0.5 (rats, imatinib 30 mg/kg IG + l-GS and l-GT 50 mg/kg/day each 21 days, vs l-GS group): 1.1 fold
increase in t0.5 (rats, imatinib 30 mg/kg IG + l-GS and l-GT 50 mg/kg/day each 21 days, vs l-GT group): 1.3 fold
Cmax (in vivo): 6400 ± 3160 ng/mL
Compound: Cc1ccc(NC(=O)c2ccc(CN3CCN(C)CC3)cc2)cc1Nc1nccc(-c2cccnc2)n1 [Imatinib, reference compound]
reduction of the area under the curve (AUC) [2]: 30%

Compound: Cc1ccc(NC(=O)c2ccc(CN3CCNCC3)cc2)cc1Nc1nccc(-c2cccnc2)n1 [N-desmethyl imatinib]
elimination half-life [3]: 40 h
t0.5 [6]: 9.9 ± 4.4 h
tmax [6]: 7.5 ± 1.0 h
MRT [7]: 9.5 ± 1.0 h
t0.5 [7]: 7.1 ± 0.9 h
tmax [7]: 4.7 ± 2.0 h
decrease in AUC0∞ [8]: 73.0%
decrease in Cmax [8]: 67.8%
increase in CL/F [8]: 3.7 fold
increase in Vz/F [8]: 4.1 fold
decrease in AUC0∞ [9]: 58.5%
decrease in Cmax [9]: 63.3%
increase in CL/F [9]: 2.5 fold
increase in Vz/F [9]: 2.9 fold
decrease in AUC0∞ [10]: ~ 2 fold
decrease in Cmax [10]: ~ 2 fold
MRT [11]: 11.9 ± 2.3 h
tmax [11]: 4.8 ± 2.2 h
increase in t0.5 (metabolite, rats, imatinib 30 mg/kg IG + h-GS and h-GT 100 mg/kg/day each 21 days, vs h-GS group): 1.5 fold
increase in t0.5 (metabolite, rats, imatinib 30 mg/kg IG + h-GS and h-GT 100 mg/kg/day each 21 days, vs h-GT group): 1.4 fold
decrease in AUC0∞ [12]: 72.1%
decrease in Cmax [12]: 71.5%
increase in CL/F [12]: 5.3 fold
increase in Vz/F [12]: 8.7 fold
increase in t0.5 [12]: 1.6 fold
decrease in AUC0∞ [13]: 75.8%
decrease in Cmax [13]: 71.9%
increase in CL/F [13]: 6.5 fold
increase in Vz/F [13]: 8.8 fold
increase in t0.5 [13]: 1.3 fold
increase in the terminal half-life (metabolite, rats, imatinib 30 mg/kg IG + h-GS and h-GT 100 mg/kg/day each 21 days, vs other high dose groups (h-GS or h-GT, not specified)): 1.4 fold
MRT [14]: 11.9 ± 2.6 h
tmax [14]: 5.2 ± 2.6 h
Cmax [15]: 408.8 ± 113.6 ng/mL
t0.5 [15]: 6.2 ± 0.5 h
tmax [15]: 4.2 ± 1.0 h
tmax (metabolite, rats, imatinib 30 mg/kg IG + l-GS and l-GT 50 mg/kg/day each 21 days): 5.8 ± 2.6 h
effect on pharmacokinetics (metabolite, rats, imatinib 30 mg/kg IG + l-GS and l-GT 50 mg/kg/day each 21 days, vs imatinib only): no significant effects; also recorded: not significantly affected
increase in AUC0∞ (metabolite, rats, imatinib 30 mg/kg IG + l-GS and l-GT 50 mg/kg/day each 21 days, vs l-GS group): 1.8 fold
increase in AUC0∞ (metabolite, rats, imatinib 30 mg/kg IG + l-GS and l-GT 50 mg/kg/day each 21 days, vs l-GT group): 6.1 fold
MRT [16]: 11.2 ± 1.8 h
t0.5 [16]: 8.0 ± 0.7 h
tmax [16]: 5.3 ± 1.6 h
AUC0∞ [17]: 7143.3 ± 2165.3 ng^.h/mL
Cmax [17]: 465.6 ± 94.0 ng/mL
MRT [17]: 11.6 ± 3.8 h
t0.5 [17]: 6.6 ± 0.5 h
tmax [17]: 6.7 ± 2.1 h
differences in pharmacokinetic parameters (metabolite, rats, imatinib 30 mg/kg IG, l-GT vs h-GT group): no significant differences
AUC0∞ metabolite/AUC0∞ drug percentage [18]: 3.3%
Cmax (metabolite) /Cmax (drug) percentage [18]: 3.4%
AUC0∞ metabolite/AUC0∞ drug percentage [19]: 6.6%
Cmax (metabolite) /Cmax (drug) percentage [19]: 6.0%
AUC0∞ metabolite/AUC0∞ drug percentage [20]: 4.0%
Cmax (metabolite) /Cmax (drug) percentage [20]: 3.6%
AUC0∞ metabolite/AUC0∞ drug percentage [21]: 6.0%
Cmax (metabolite) /Cmax (drug) percentage [21]: 5.3%
AUC0∞ metabolite/AUC0∞ drug percentage [22]: 7.8%
Cmax (metabolite) /Cmax (drug) percentage [22]: 7.9%
AUC0∞ metabolite/AUC0∞ drug percentage [23]: 5.5%
Cmax (metabolite) /Cmax (drug) percentage [23]: 5.0%
AUC0∞ metabolite/AUC0∞ drug percentage [24]: 3.5%
Cmax (metabolite) /Cmax (drug) percentage [24]: 3.2%
AUC0∞ metabolite/AUC0∞ drug percentage [25]: 6.8%
Cmax (metabolite) /Cmax (drug) percentage [25]: 7.3%

Compound: (−)-epicatechin-3-gallate [ECG]
inhibition of estrone-3-sulfate uptake (OATP-B; concentration of 10 mM): 66.6%
